Measurements reported in patent publication US20200360322A1, “FORMULATIONS AND DOSAGE FORMS FOR ENHANCING PERFORMANCE OR RECOVERY FROM STRESS” (ACTIVATE BIO PHYSICS CORP., priority 2017, published 2020).

Assays:
[1] = four- to seven-day alcohol poisoning or acute barbiturate poisoning
[2] = tested on: animal after a 10-minute stop of blood flow; conditions: cited from earlier work
SUCNR1 = SUCNR1 (Homo sapiens, UniProt Q9BXA5); conditions: cited from earlier work
Chain of SUCNR1 (Q9BXA5 whole entry, species assumed): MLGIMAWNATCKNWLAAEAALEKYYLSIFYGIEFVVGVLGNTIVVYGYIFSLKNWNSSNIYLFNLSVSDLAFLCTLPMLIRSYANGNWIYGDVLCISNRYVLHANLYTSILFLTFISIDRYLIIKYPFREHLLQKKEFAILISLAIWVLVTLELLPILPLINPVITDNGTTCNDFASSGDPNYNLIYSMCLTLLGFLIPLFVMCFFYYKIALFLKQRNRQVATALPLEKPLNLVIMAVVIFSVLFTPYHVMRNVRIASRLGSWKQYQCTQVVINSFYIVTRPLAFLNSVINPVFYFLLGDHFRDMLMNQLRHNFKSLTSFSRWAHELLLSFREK

O=C(O)CCC(=O)O [natural conformer of succinic acid, succinic acid]
severe intoxication [1]: contributes to the prevention of severe intoxication

O=C([O-])CCC(=O)[O-].[Na+].[Na+] [sodium succinate]
condition of the central nervous system ([2]; abdominal injection after the stop of blood flow): not only fails to improve, but can aggravate, the condition of the central nervous system

O=C(O)CCC(=O)O [succinate]
concentration in interstitial fluid and blood sufficient for SUCNR1 activation and HIF dimer stabilization (SUCNR1): 2.10^−4 mol | concentration needed to activate SUCNR1 or to stabilize HIF (SUCNR1): 150 ± 180 µmol

O=C(O)CCC(=O)O [succinic acid]
central nervous system recovery ([2]; oral administration): improves the central nervous system's recovery
